From US7402687B2, “Dihydrobenzofuran derivatives and uses thereof” (Wyeth, priority 2005, dated 2008)

Experiments:
[1] = biological target: T1, human serotonin 5-HT2C receptor (Homo sapiens, UniProt P28335); experiment: Saturation binding of [125I]DOI at the human 5-HT2C receptor; conditions: saturation binding with increasing concentrations of [125I]DOI; read-out: dissociation constant, KD
T1 construct: expressed in transfected cells; host or cells: CHO (Chinese Hamster Ovary) cells; membrane preparation
T1 sequence (P28335 33-458): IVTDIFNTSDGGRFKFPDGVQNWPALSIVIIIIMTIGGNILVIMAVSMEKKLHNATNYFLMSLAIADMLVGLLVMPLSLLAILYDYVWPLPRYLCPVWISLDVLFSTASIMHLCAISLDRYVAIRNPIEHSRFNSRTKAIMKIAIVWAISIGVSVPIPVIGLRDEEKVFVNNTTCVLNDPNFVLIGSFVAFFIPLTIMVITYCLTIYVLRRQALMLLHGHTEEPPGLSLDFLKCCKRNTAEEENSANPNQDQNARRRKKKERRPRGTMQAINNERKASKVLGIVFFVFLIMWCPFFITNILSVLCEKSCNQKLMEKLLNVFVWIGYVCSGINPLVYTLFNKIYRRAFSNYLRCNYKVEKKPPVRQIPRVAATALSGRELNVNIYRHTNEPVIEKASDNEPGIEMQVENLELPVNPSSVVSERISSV
From the text: To evaluate the affinity of various compounds of formula I for activity at the 5-HT2C receptor, a CHO (Chinese Hamster Ovary) cell line transfected with the cDNA expressing the human 5-hydroxytryptamine-2C (h5-HT2C) receptor is maintained in DMEM (Dulbecco's Modified Eagle Media) supplied with fetal calf serum, glutamine, and the markers: guaninephosphoribosyl transferase (GTP) and hypoxanthinethymidine (HT). The cells are allowed to grow to confluence in large culture dishes with intermediate changes of media and splitting. Upon reaching confluence, the cells are harvested by scraping. The harvested cells are suspended in half volume of fresh physiological phosphate buffered saline (PBS) solution and centrifuged at low speed (900×g). This operation is repeated once. The collected cells are then homogenized with a polytron at setting #7 for 15 sec in ten volumes of 50 mM Tris.HCl, pH 7.4 and 0.5 mM EDTA. […] The resulting pellet is resuspended in a small volume of Tris.HCl buffer and the tissue protein content is determined in aliquots of 10-25 μL volumes. […]
The dissociation constant, KD of [^125I] […] The bound complex caught on the filter disk is dried in a vacuum oven heated to 60° C. and the radioactivity measured by liquid scintillation with 40 μL Microscint-20 scintillant in a Packard TopCount® equipped with six (6) photomultiplier detectors.

[2] = biological target: T2, human 5-hydroxytryptamine-2C (h5-HT2C) receptor (Homo sapiens, UniProt P28335); experiment: [125I]DOI competition binding at h5-HT2C receptor in transfected CHO cell membranes; conditions: [125I]DOI displacement, CHO membranes expressing h5-HT2C; 95% confidence interval in adjacent column
T2 construct: expressed in transfected cells; host or cells: CHO (Chinese Hamster Ovary) cells; membrane preparation
T2 sequence (P28335 33-458): T1 sequence (P28335 33-458)

SMILES	Kd [1] [nM]	Ki [2] [nM]
COc1cc(CC(C)N)c(OC)cc1I (centres unmarked) [[^125I] DOI]	0.4	
CSc1ccc2c(c1)C(N1CCN(C)CC1)Cc1ccccc1S2 (centres unmarked) [Methiothepin]		4.6
